Laboratory results reported in patent publication US20100144886A1, “METHOD FOR TREATING PULMONARY ARTERIAL HYPERTENSION” (AGI Therapeutics Research Limited, priority 2006, published 2010).
Like-named read-outs stand apart in the source and are kept apart here.

Key:
[1] = target: L-type calcium channel binding (CCB) site (Rattus norvegicus, UniProt P22002); test: L-type calcium channel binding (CCB) affinity; details: rat cerebral cortex; relevant L-type calcium channel site of each blocker
Experimental: (§1) Each of those receptors was analyzed by methods known in the art. Initial assessment of binding at 100×10^−7 M (10 micro molar) was performed in duplicate.
The binding activity of the reported receptors was analyzed using the following methods.
There are three distinct binding sites on the L-type calcium channel receptor. Further, the binding affinity at a particular site can be allosterically modulated by binding at one of the other sites. Thus, testing included the affinity of the different types of calcium channel blockers at their particular site of interaction.

melatonin ML-1 [2] = test: Melatonin ML1 binding affinity; parameters: species or system chicken; details: relative potency compared to CCB, Table 2
Experimental: as §1

melatonin ML-1 [3] = target: T1, melatonin ML-1; test: Melatonin ML1 binding affinity; parameters: species or system chicken
T1 construct: other: chicken brain; other: at 100×10^−7 M
Experimental: as §1

5-HT2B receptor [4] = target: T2, 5-HT2B receptor (Homo sapiens, UniProt P41595); test: 5-HT2B binding affinity of racemic verapamil and other calcium channel blockers (5-HT control, Bonhaus method); parameters: expressed in transfected cells; host or cells: CHO cells; details: relative potency compared to CCB, Table 2
T2 sequence (P41595 whole entry): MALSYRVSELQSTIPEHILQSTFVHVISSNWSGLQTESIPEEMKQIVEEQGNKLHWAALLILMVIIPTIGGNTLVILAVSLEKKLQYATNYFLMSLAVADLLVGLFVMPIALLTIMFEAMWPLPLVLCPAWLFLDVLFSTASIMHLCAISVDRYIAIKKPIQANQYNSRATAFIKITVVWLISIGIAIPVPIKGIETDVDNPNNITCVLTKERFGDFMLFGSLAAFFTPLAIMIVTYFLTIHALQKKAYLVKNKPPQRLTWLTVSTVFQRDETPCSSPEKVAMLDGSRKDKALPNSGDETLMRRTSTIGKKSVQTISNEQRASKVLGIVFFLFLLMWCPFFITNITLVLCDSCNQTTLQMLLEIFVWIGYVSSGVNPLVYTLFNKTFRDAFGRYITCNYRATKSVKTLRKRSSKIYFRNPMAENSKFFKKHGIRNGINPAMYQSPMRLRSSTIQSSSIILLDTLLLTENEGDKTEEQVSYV
Experimental: as §1

5-HT2B receptor [5] = target: T2, 5-HT2B receptor
Experimental: as §1

5-HT4E receptor = 5-HT4E receptor (Homo sapiens, UniProt Q13639); details: at 100×10^−7 M
Chain of 5-HT4E receptor (Q13639 1-378 isoform Q13639-5): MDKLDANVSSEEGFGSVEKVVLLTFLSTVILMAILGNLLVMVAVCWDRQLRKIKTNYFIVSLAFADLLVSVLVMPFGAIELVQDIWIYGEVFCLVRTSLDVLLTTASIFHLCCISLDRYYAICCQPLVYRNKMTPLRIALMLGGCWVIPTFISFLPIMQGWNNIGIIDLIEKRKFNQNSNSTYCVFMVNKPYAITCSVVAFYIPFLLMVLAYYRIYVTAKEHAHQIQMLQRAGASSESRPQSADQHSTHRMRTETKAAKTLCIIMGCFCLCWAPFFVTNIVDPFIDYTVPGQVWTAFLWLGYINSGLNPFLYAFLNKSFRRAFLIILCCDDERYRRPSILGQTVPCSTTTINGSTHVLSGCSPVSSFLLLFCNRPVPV
Experimental: as §1

5-HT1D receptor = 5-HT1D receptor (Homo sapiens, UniProt P28221); details: at 100×10^−7 M
Chain of 5-HT1D receptor (P28221 whole entry): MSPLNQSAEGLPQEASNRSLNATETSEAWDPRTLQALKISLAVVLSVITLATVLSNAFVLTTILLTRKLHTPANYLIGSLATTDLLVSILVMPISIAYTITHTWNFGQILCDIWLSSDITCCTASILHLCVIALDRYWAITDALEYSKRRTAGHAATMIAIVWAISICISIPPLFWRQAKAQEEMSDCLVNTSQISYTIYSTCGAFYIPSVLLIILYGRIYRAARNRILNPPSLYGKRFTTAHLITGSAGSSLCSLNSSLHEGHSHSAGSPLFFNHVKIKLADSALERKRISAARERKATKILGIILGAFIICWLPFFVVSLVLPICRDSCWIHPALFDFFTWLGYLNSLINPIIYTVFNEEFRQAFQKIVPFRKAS
Experimental: as §1

5-HT6 receptor = 5-HT6 receptor (Homo sapiens, UniProt P50406); details: at 100×10^−7 M
Chain of 5-HT6 receptor (P50406 whole entry): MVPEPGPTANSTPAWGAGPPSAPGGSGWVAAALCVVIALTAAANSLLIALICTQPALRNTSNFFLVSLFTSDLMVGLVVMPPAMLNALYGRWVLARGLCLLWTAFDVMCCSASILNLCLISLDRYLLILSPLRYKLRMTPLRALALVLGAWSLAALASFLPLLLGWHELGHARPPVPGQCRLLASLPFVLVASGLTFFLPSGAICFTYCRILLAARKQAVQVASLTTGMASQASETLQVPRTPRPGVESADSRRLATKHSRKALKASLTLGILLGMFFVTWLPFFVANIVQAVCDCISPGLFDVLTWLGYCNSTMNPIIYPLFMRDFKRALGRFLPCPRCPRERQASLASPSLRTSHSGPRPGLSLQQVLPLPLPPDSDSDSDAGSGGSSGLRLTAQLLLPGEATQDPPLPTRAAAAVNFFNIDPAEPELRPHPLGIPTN
Experimental: as §1

5-HT5A receptor = 5-HT5A receptor (Homo sapiens, UniProt P47898); details: at 100×10^−7 M
Chain of 5-HT5A receptor (P47898 whole entry): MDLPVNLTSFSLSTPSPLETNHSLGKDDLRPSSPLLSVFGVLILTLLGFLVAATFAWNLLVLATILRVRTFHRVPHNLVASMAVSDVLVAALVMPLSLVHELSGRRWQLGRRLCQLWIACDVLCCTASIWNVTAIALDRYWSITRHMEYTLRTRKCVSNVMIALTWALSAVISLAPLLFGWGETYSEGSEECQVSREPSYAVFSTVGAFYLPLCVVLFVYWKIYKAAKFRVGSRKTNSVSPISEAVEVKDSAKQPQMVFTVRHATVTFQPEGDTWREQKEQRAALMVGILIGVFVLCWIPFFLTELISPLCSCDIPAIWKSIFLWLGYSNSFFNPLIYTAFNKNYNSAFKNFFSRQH
Experimental: as §1

Na channel = Na channel binding
Description: […]. […] […].
Those results are summarized at Table 9.

Chain of L-type calcium channel binding (CCB) site (P22002 whole entry): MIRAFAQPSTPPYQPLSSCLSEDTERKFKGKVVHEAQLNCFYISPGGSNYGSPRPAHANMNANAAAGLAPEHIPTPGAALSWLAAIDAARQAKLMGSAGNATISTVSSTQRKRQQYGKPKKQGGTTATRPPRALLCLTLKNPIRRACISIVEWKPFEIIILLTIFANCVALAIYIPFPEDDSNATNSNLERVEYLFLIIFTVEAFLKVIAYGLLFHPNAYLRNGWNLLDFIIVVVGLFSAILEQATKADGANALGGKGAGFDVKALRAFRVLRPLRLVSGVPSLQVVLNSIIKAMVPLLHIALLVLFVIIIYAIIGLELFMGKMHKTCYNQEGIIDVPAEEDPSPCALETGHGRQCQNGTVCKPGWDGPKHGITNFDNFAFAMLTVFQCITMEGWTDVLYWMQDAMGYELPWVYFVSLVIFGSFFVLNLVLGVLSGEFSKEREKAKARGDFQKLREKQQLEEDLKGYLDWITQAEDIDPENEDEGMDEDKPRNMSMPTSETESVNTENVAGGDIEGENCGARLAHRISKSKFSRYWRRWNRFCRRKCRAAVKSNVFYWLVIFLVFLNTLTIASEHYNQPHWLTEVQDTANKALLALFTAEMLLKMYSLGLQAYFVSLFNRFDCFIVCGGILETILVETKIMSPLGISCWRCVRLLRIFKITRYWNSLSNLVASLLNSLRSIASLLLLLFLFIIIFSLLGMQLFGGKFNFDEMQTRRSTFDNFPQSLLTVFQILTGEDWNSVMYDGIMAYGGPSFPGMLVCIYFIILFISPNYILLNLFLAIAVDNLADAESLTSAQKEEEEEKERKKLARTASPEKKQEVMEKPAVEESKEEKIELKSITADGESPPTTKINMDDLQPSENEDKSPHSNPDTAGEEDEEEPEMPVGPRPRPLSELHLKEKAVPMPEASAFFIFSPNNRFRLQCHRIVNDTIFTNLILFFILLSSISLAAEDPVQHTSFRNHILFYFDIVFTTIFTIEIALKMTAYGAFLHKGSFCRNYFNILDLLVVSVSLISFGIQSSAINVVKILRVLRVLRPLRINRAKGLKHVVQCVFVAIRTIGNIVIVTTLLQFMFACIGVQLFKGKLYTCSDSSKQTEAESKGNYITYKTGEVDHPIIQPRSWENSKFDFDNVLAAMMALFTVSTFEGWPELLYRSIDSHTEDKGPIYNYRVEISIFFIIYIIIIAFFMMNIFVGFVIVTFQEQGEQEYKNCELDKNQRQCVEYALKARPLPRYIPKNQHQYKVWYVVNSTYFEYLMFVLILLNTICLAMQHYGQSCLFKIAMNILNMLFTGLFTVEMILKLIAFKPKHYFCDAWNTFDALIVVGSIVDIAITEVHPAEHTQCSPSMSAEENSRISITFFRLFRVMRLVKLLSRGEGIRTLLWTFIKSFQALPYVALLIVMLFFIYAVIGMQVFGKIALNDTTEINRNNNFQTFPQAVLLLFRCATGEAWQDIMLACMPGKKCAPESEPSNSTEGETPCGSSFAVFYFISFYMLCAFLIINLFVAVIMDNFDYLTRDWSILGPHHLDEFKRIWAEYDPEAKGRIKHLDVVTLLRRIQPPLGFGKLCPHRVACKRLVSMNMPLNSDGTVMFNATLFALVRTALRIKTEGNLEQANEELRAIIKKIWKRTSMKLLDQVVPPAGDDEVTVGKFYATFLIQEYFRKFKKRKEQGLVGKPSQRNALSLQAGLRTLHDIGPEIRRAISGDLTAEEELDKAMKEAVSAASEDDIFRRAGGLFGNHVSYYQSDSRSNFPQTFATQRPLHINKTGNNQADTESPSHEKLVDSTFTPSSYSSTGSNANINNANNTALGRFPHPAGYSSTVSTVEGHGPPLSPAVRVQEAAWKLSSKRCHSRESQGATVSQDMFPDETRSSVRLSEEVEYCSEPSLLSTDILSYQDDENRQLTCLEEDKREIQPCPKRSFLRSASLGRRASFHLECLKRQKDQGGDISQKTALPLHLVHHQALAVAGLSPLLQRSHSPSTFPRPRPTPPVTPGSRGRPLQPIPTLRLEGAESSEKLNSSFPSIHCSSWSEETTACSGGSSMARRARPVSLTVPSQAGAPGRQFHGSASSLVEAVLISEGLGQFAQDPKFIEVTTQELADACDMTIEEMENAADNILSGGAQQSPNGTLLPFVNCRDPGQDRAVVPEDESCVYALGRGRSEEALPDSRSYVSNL

COC(=O)C1=C(C)NC(C)=C(C(=O)OC(C)C)C1c1cccc2nonc12 (centres unmarked) [Isradipine]
IC50 [1]: 0.46 nM
(IC50: ML-1)/(IC50: CCB) (melatonin ML-1 [2]): 4,348
IC50 (melatonin ML-1 [3]; chicken brain): 2000 nM
(IC50: 5-HT2B)/(IC50: CCB) (5-HT2B receptor [4]): 21,739

COc1ccc([C@@H]2Sc3ccccc3N(CCN(C)C)C(=O)[C@@H]2OC(C)=O)cc1 [Diltiazem]
percentage of binding, ML-1 (melatonin ML-1 [3]; at 100×10^−7 M): >100(9%)

COc1ccc(CCN(C)CCC[C@](C#N)(c2ccc(OC)c(OC)c2)C(C)C)cc1OC [(R)-verapamil]
% Binding, 5-HT2B (5-HT2B receptor [5]; at 0.1 (×10^−7 M)): 0%
% Binding, 5-HT2B (5-HT2B receptor [5]; at 0.3 (×10^−7 M)): 10%
% Binding, 5-HT2B (5-HT2B receptor [5]; at 1.0 (×10^−7 M)): 39%
% Binding, 5-HT2B (5-HT2B receptor [5]; at 3.0 (×10^−7 M)): 68%
percentage of binding, 5-HT4E (5-HT4E receptor): >100(24%)
percentage of binding, 5-HT1D (5-HT1D receptor): >100(17%)
percentage of binding, 5-HT6 (5-HT6 receptor): >100(47%)
percentage of binding, 5-HT5A (5-HT5A receptor): >100(19%)
IC50 (Na channel): 1800 nM
